Data taken from patent EP4656642A1, “ESTROGEN RECEPTOR PROTEOLYSIS TARGETING CHIMERA COMPOUND AND USE THEREOF” (GAN & LEE PHARM CO., LTD, priority 2023, dated 2024).

Columns and labels:
Type in all cases: cell-based
[1] = tested on: T-47D cells; test: Inhibition of cell proliferation in T-47D cells (CCK-8, 6 days); conditions: 6 days of treatment, Table 3
Text: Test Example 2: Inhibitory effect of the PROTAC compounds provided in the present disclosure on cell proliferation in T-47D cells (source ATCC)
The complete medium required for T-47D cells was 1640 ( ATCC, Product number: A10491-01) basal medium containing 10% fetal bovine serum. T-47D cells were inoculated in 96-well plates at a density of 3,000 cells/well, and different concentrations of the PROTAC compounds 1-55 provided in the examples of the present disclosure and a positive control sample ARV-471 (source: Innochem) were prepared to treat cells, and the cells were treated at 37°C in a cell culture incubator with 5% CO2 for 6 days. Cell viability was detected using a CCK-8 kit (Beyotime, Product number: C0040) according to the manufacturer's instructions. […] Table 2 IC50 values for inhibition of the proliferation of T-47D cells by the PROTAC compounds provided by the present disclosure and the positive control sample

[2] = target: T1, ERα (Homo sapiens, UniProt P03372); test: Degradation of ERα in MCF-7 cells (immunoblotting, 4 h)
T1 sequence (P03372 1-595): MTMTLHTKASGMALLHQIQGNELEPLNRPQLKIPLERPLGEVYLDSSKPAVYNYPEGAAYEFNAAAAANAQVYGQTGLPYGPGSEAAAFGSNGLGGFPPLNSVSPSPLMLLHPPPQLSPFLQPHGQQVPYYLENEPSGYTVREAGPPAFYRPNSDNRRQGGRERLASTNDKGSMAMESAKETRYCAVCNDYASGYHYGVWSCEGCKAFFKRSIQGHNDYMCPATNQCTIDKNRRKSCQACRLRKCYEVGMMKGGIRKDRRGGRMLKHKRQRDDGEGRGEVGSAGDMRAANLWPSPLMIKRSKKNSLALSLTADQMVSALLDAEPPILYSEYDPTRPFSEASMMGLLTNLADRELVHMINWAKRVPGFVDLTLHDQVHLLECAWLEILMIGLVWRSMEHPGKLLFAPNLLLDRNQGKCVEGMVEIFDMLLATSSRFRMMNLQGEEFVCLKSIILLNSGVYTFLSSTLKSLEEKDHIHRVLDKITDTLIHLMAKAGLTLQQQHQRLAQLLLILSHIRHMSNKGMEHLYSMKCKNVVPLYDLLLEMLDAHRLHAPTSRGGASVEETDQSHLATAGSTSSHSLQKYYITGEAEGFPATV
Summary of the method: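 MCF-7 cells treated 4 h at 37°C with compounds at 0.15-1000nM final. ERα in lysates measured by immunoblot, with band grayscale normalized to an internal reference protein. Degradation rate calculated against DMSO-treated control.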

[3] = target: T1, ERα; test: Degradation of ERα in T-47D cells (immunoblotting, 4 h); design: host or cells: T-47D
Summary of the method: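 T-47D cells were treated with compound (final 0.15-1000 nM, DMSO) for 4 h at 37°C, 5% CO2. Cells were lysed in RIPA buffer with protease inhibitor, and ERα protein in the cleared lysate was measured by immunoblotting.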

[4] = tested on: MCF-7 cells; test: Inhibition of cell proliferation of MCF-7 cells (CCK-8, 9 days); conditions: treated for 9 days, CCK-8 kit (Table 6)
Summary of the method: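 MCF-7 cells seeded at 800 cells/well in DMEM with 10% FBS, exposed to a range of compound concentrations for 9 days at 37°C, 5% CO2. Viability read by CCK-8; IC50 derived for proliferation inhibition.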

SMILES	IC50 [1]	Degradation rate (%) of ERα in MCF-7 cells ([2]; 1nM compound)	Degradation rate (%) of ERα in MCF-7 cells ([2]; 10nM compound)	Degradation rate (%) of ERα in T-47D cells ([3]; 1nM compound)	Degradation rate (%) of ERα in T-47D cells ([3]; 10nM compound)	IC50 [4]
O=C1CCC(N2Cc3c(ccc4c3OCC43CCN(C4CCN(C5CC6(CCN(c7ccc([C@@H]8c9ccc(O)cc9CC[C@@H]8c8ccccc8)cc7)CC6)C5)[C@@H](C(=O)N5CCC(F)(F)CC5)C4)CC3)C2=O)C(=O)N1 (stereo partly drawn) [A99]	2.07 nM	35%	77%	51%	82%	4.19 nM
CN(C(=O)CN1CCC2(CC1)COc1c2ccc2c1C(=O)N(C1CCC(=O)NC1=O)C2=O)C1CCC2(CC1)CCN(c1ccc([C@@H]3c4ccc(O)cc4CC[C@@H]3c3ccccc3)cc1)CC2 (stereo partly drawn) [C15]	9.07 nM	18%	45%	41%	71%	406 nM
O=C1CCC(N2Cc3c(ccc4c3OCC43CCN(C(=O)C4CCC5(CC4)CCN(c4ccc([C@@H]6c7ccc(O)cc7CC[C@@H]6c6ccccc6)cc4)CC5)CC3)C2=O)C(=O)N1 (stereo partly drawn) [L27]	8.51 nM	24%	52%	12%	66%	> 100000 nM
O=C1CCC(N2Cc3c(ccc4c3OCC43CCN(CC(=O)N4CCN(c5ccc([C@@H]6c7ccc(O)cc7CC[C@@H]6c6ccccc6)cc5)CC4)CC3)C2=O)C(=O)N1 (stereo partly drawn) [H18]	1.55 nM	18%	58%	69%	57%	7380 nM
O=C1CCC(N2Cc3c(ccc4c3OCC43CCN(C(=O)C4CCC(N5CCN(c6ccc([C@@H]7c8ccc(O)cc8CC[C@@H]7c7ccccc7)cc6)CC5)CC4)CC3)C2=O)C(=O)N1 (stereo partly drawn) [H17]	1.02 nM	47%	54%	61%	68%	62.7 nM
O=C1CCC(N2Cc3c(ccc4c3OCC43CCN(C4CCN(C(=O)c5ccc([C@@H]6c7ccc(O)cc7CC[C@@H]6c6ccccc6)cc5)CC4)CC3)C2=O)C(=O)N1 (stereo partly drawn) [H9]	594 nM	-39%	-54%	-3%	-31%	5020 nM
O=C1CCC(N2Cc3cc4c(cc3C2=O)OC2(CC4)CN(CC3CCC4(CC3)CCN(c3ccc([C@@H]5c6ccc(O)cc6CC[C@@H]5c5ccccc5)cc3)CC4)C2)C(=O)N1 (stereo partly drawn) [A37]	7 nM	-12%	8%	15%	35%	37 nM
CN(CC(=O)N1CC2(CCc3cc4c(cc3O2)C(=O)N(C2CCC(=O)NC2=O)C4)C1)C1CCC2(CC1)CN(c1ccc([C@@H]3c4ccc(O)cc4CC[C@@H]3c3ccccc3)cc1)C2 (stereo partly drawn) [C18]	11.1 nM	10%	29%	24%	50%	11400 nM
O=C1CCC(N2Cc3cc4c(cc3C2=O)OC2(CC4)CN(C(=O)C3CC4(CCN(c5ccc([C@@H]6c7ccc(O)cc7CC[C@@H]6c6ccccc6)cc5)CC4)C3)C2)C(=O)N1 (stereo partly drawn) [A49]	9.63 nM	9%	37%	17%	48%	11100 nM
O=C1CCC(N2Cc3c(ccc4c3OCC43CCN(C(=O)C4CCN(C5CCN(c6ccc([C@@H]7c8ccc(O)cc8CC[C@@H]7c7ccccc7)cc6)CC5)CC4)CC3)C2=O)C(=O)N1 (stereo partly drawn) [H22]	1.57 nM	32%	64%	56%	73%	3.5 nM
C[C@@H]1Cc2c(ccc3[nH]ncc23)C(c2c(F)cc(N3CC4(CCC(N5CCC6(CC5)COc5c6ccc6c5CN(C5CCC(=O)NC5=O)C6=O)CC4)C3)cc2F)N1CC(F)F (stereo partly drawn) [G21]	25.1 nM	45%	57%	34%	63%	8.6 nM
N#CC1(CN2CCC3(CC2)COc2c3ccc3c2CN(C2CCC(=O)NC2=O)C3=O)CCN(C(=O)C2CCN(c3ccc([C@@H]4c5ccc(O)cc5CC[C@@H]4c4ccccc4)cc3)CC2)CC1 (stereo partly drawn) [A108]	1.8 nM	22%	46%	41%	73%	7390 nM
O=C1CCC(N2Cc3c(ccc4c3OCC43CCN(C4CCC5(CC4)CCN(c4ccc(C6=C(c7ccc(Cl)cc7Cl)CCCc7cc(C(=O)O)ccc76)cc4)CC5)CC3)C2=O)C(=O)N1 (stereo not drawn) [F11]	10.4 nM	14%	43%	20%	57%	103 nM
CN(CC(=O)N1CCC2(CC1)COc1c2ccc2c1C(=O)N(C1CCC(=O)NC1=O)C2=O)C1CCC2(CC1)CN(c1ccc([C@@H]3c4ccc(O)cc4CC[C@@H]3c3ccccc3)cc1)C2 (stereo partly drawn) [C19]	14.7 nM	15%	45%	32%	65%	23100 nM
O=C1CCC(N2Cc3cc4c(cc3C2=O)OCC42CCN(CC3CCN(c4ccc([C@@H]5c6ccc(O)cc6CC[C@@H]5c5ccccc5)cc4)CC3)CC2)C(=O)N1 (stereo partly drawn) [J1]	16.7 nM	9%	-14%	-6%	-10%	857 nM
